{
  "source": "patent US8022103B2",
  "about": "“Ester prodrugs of prostratin and related phorbol compounds” (Salvia Sciences, Inc., priority 2005, dated 2011)",
  "key": {"HepG2-2.2.15 cells": {"tested_on": "HepG2-2.2.15 cells", "experiment": "Dye uptake cell viability in HepG2-2.2.15 cells", "format": "cell-based", "details": "at the concentrations evaluated", "method": "HepG2 2.2.15 Antiviral Assay. The assay developed is similar to that described ion the literature (Korba et al., 1991, Antiviral Res. 15: 217-228; Korba et al., 1992, Antiviral Res. 19: 55-70) with the exception that viral DNA detection and quantification have been improved and simplified (Buckwold et al., 2004, Antiviral Res. 61(1): 57-62). Briefly, HepG2-2.2.15 cells are plated in 96-well microtiter plates. Only the interior wells are utilized to reduce “edge effects” observed during cell culture; the exterior wells are filled with complete medium to help minimize sample evaporation. After 16-24 hours the confluent monolayer of HepG2-2.2.15 cells is washed and the medium is replaced with complete medium containing various concentrations of a test compound in triplicate. […] Six days following the initial administration of the test compound, the cell culture supernatant is collected, treated with pronase and DNAse and then used in a real-time quantitative TaqMan PCR assay. The PCR-amplified HBV DNA is detected in real-time by monitoring increases in fluorescence signals that result from the exonucleolytic degradation of a quenched fluorescent probe molecule that hybridizes to the amplified HBV DNA. […] Antiviral activity is calculated from the reduction in HBV DNA levels (IC50). […] The therapeutic index (TI) is calculated as TC50/IC50."}, "[1]": {"experiment": "Solubility in pH controlled solutions and intravenous formulations", "format": "physicochemical", "method": "Solubility of prostratin and SA-101B was measured in pH controlled solutions and in various representative formulations, in particular, intravenous formulations, where solubility is often a limiting factor."}, "Hepatitis B Virus": {"tested_on": "Hepatitis B Virus", "experiment": "HepG2 2.2.15 antiviral assay (HBV DNA, TaqMan PCR)", "format": "cell-based, Hepatitis B (HBV)", "details": "HepG2 2.2.15 cells", "method": "Compounds SA-101A and SA-101B were evaluated for effect on Hepatitis B Virus replications using a cell culture based HBV replication system.\nCompound preparation. The compounds were prepared in powder form (˜1 mg) and solubilized in DMSO prior to use. Compound 3TC was used as positive antiviral control.\nHepG2 2.2.15 Antiviral Assay. The assay developed is similar to that described ion the literature (Korba et al., 1991, Antiviral Res. 15: 217-228; Korba et al., 1992, Antiviral Res. 19: 55-70) with the exception that viral DNA detection and quantification have been improved and simplified (Buckwold et al., 2004, Antiviral Res. 61(1): 57-62). Briefly, HepG2-2.2.15 cells are plated in 96-well microtiter plates. […] Six days following the initial administration of the test compound, the cell culture supernatant is collected, treated with pronase and DNAse and then used in a real-time quantitative TaqMan PCR assay. The PCR-amplified HBV DNA is detected in real-time by monitoring increases in fluorescence signals that result from the exonucleolytic degradation of a quenched fluorescent probe molecule that hybridizes to the amplified HBV DNA. […] Antiviral activity is calculated from the reduction in HBV DNA levels (IC50). […] The therapeutic index (TI) is calculated as TC50/IC50."}, "HIV-1Ba-L": {"tested_on": "HIV-1Ba-L", "experiment": "Anti-HIV efficacy in human monocyte/macrophages (p24 ELISA)", "format": "cell-based", "method": "SA-101A and SA-101B were tested for antiviral activity against HIV-1 virus in peripheral blood monocytes/macrophages. Monocytes/macrophages were derived from normal HIV-1 negative donors, and cultured under conditions which promote cell survival and HIV replication. Fresh human blood was obtained commercially from Biological Specialty Corporation (Colmar, Pa.). The low passage, monocytropic, clinical isolate HIV-1Ba-L (Subtype B, R5) was obtained from the NIAID AIDS Research and Reference Reagent Program. A pre-titered aliquot of HIV 1Ba-L was removed from the freezer (−80° C.) and thawed rapidly to room temperature in a biological safety cabinet immediately before use. Phytohemagglutinin (PHA-P) was obtained from Sigma (St. Louis, Mo.) and recombinant IL-2 was obtained from R&D Systems Inc. (Minneapolis, Minn.).\nCompound preparation: Compounds SA-101A and SA-101B were in powder form and solubilized in DMSO prior to use. AZT (Sigma), solubilized in sterile dH2O, was used as the positive antiviral control. The compounds were tested at a 100 μg/mL high-test concentration; AZT was tested at a 1,000 ηM high-test concentration. Compound SA-101B was tested in the presence of 40% human AB serum.\nMonocyte isolation and culture. Peripheral blood monocytes were isolated from screened donors sero-negative for HIV and HBV. Cells were pelleted by low speed centrifugation and re-suspended in PBS to remove contaminating platelets. The leukophoresed blood was then diluted with Dulbecco's phosphate buffered saline (PBS) and layered over of Lymphocyte Separation Medium (LSM; Cellgro® by Mediatech, Inc.; density 1.078+/−0.002 g/ml; Cat. # 85-072-CL) in a 50 mL centrifuge tube and then centrifuged. Banded PBMCs were gently aspirated from the interface and subsequently washed with PBS by low speed centrifugation. The cells were diluted to 4×10^6 cells per mL in DMEM without phenol red supplemented with 10% heat inactivated human pooled AB serum, 2 mM L-glutamine, 100 U/mL penicillin and 100 μg/mL streptomycin. Monocytes/macrophages were allowed to adhere to the interior 60 wells (100 μL/well) of a 96 well flat bottomed plate for 2 to 18 hours at 37° C., 5% CO2. The exterior wells were filled with 200 μL of sterile DPBS to serve as a humidity barrier. Following adherence of cells, the cultures were washed with sterile DPBS to remove non-adherent cells (lymphocytes and contaminating RBCs). […]\nAnti-HIV efficacy evaluation in human monocyte/macrophages. […] At assay termination, virus replication was measured by collecting cell-free supernatant samples, which were analyzed for HIV p24 antigen content using a commercially available p24 ELISA assay (Coulter). […]"}},
  "note": "Like-named read-outs stand apart in the source and are kept apart here.",
  "data": [
    {"compound": "CC(=O)O[C@@]12C[C@@H](C)[C@@]3(O)[C@@H](C=C(CO)C[C@]4(O)C(=O)C(C)=C[C@@H]34)[C@@H]1C2(C)C", "note": "[SA-101A, 12-deoxyphorbol 13-acetate]", "values": [
      {"measurement": "Cytotoxicity", "setting": "HepG2-2.2.15 cells", "value": "no cytotoxicity"},
      {"measurement": "solubility", "setting": "[1]; 5% dextrose (intravenous formulation), saline or isotonic, read-out: Solubility 5% Dextrose", "value": 330, "unit": "µg/mL"},
      {"measurement": "solubility", "setting": "[1]; pH controlled solution, pH 1, simulated gastric fluid, read-out: Solubility pH 1", "value": 370, "unit": "µg/mL"},
      {"measurement": "solubility", "setting": "[1]; pH controlled solution, pH 2, simulated gastric fluid, read-out: Solubility pH 2", "value": 370, "unit": "µg/mL"},
      {"measurement": "solubility", "setting": "[1]; pH controlled solution, pH 5, aqueous buffer, read-out: Solubility pH 5", "value": 450, "unit": "µg/mL"},
      {"measurement": "solubility", "setting": "[1]; pH controlled solution, pH 7.5, aqueous buffer, read-out: Solubility pH 7.5", "value": 420, "unit": "µg/mL"},
      {"measurement": "solubility", "setting": "[1]; pH controlled solution, pH 9, aqueous buffer, read-out: Solubility pH 9", "value": 390, "unit": "µg/mL"},
      {"measurement": "solubility", "setting": "[1]; saline (0.9% NaCl) (intravenous formulation), saline or isotonic, read-out: Solubility Saline (0.9% NaCl)", "value": 340, "unit": "µg/mL"},
      {"measurement": "EC50 (inhibition of HBV)", "setting": "Hepatitis B Virus", "value": "did not achieve EC50 values"},
      {"measurement": "IC50", "setting": "HIV-1Ba-L; Human immunodeficiency virus 1, Macrophage, read-out: IC50", "value": 0.11, "unit": "µg/mL"},
      {"measurement": "IC90", "setting": "HIV-1Ba-L; Human immunodeficiency virus 1, Macrophage, read-out: IC90", "value": 0.28, "unit": "µg/mL"}
    ]},
    {"compound": "CC(=O)OC12CC(C)C3(O)C(C=C(COC(=O)CCC(=O)O)CC4(O)C(=O)C(C)=CC43)C1C2(C)C", "note": "(centres unmarked) [SA-101B, Prostratin Succinate]", "values": [
      {"measurement": "Cytotoxicity", "setting": "HepG2-2.2.15 cells", "value": "no cytotoxicity"},
      {"measurement": "Solubility 5% Dextrose", "setting": "[1]; 5% Dextrose", "value": ">10000", "unit": "µg/mL"},
      {"measurement": "Solubility Saline (0.9% NaCl)", "setting": "[1]; Saline (0.9% NaCl)", "value": ">10000", "unit": "µg/mL"},
      {"measurement": "Solubility compared with prostratin", "setting": "[1]; all media", "value": "better solubility than prostratin"},
      {"measurement": "Solubility pH 1", "setting": "[1]; pH 1", "value": 1.21, "unit": "mg/mL"},
      {"measurement": "Solubility pH 2", "setting": "[1]; pH 2", "value": 4.46, "unit": "mg/mL"},
      {"measurement": "Solubility pH 5", "setting": "[1]; pH 5", "value": 7.72, "unit": "mg/mL"},
      {"measurement": "Solubility pH 7.5", "setting": "[1]; pH 7.5", "value": 11.20, "unit": "mg/mL"},
      {"measurement": "Solubility pH 9", "setting": "[1]; pH 9", "value": 12.08, "unit": "mg/mL"},
      {"measurement": "EC50 (inhibition of HBV)", "setting": "Hepatitis B Virus", "value": "did not achieve EC50 values"},
      {"measurement": "IC50", "setting": "HIV-1Ba-L; 40% Human AB serum", "value": 0.28, "unit": "µg/mL"},
      {"measurement": "IC90", "setting": "HIV-1Ba-L; 40% Human AB serum", "value": 7.29, "unit": "µg/mL"}
    ]}
  ]
}
